Molecules are shown by their SMILES.

One assay deals with T1, MNK2 (Homo sapiens, UniProt Q9HBH9).
T1 construct: purchased Proqinase
Put plainly: radiometric kinase assay (33PanQinase Activity Assay), MNK2. It is filed as biochemical. The following applies: after treatment with 10 μM compound; ATP 0.3 μM; read-out: residual activity of MNK2.

Another assay relates to 320-kinase panel. Put plainly: selectivity on a 320-kinase panel. It is filed as biochemical. The note with it: 1 μM. The procedure: The kinase activity of the compound was measured by a radiometric kinase assay (^33PanQinase® Activity Assay) carried out by Proqinase (www.proqinase.com).
The assays were carried out in 96-well FlashPlates™ by PerkinElmer (Boston, Mass., USA) with a reaction volume of 50 μl. The reaction cocktail was pipetted in 4 steps: (1) 20 μl buffer, (2) 5 μl ATP solution (in H2O), (3) 5 μl compound (in 10% DMSO) and (4) 20 μl enzyme/substrate mixture. Lastly, the cocktail contained 70 mM HEPES-NaOH pH 7.5, 3 mM MgCl2, 3 mM MnCl2, 3 μM sodium orthovanadate, 1.2 mM DTT, 50 μg/ml PEG20000, ATP (1 μM for MNK1 and 0.3 μM for MNK2), [γ-^33P]-ATP (approx. […] per well), protein kinase (variable amounts depending on the batch) and substrate (2 μg/50 μl).
Reaction cocktails were incubated at 30° C. for 60 minutes. The reaction was stopped with 50 μl of 2% H3PO4 (v/v), the plates were sucked, they were washed twice with 200 μl of 0.9% NaCl (w/v) and the incorporation of ^33Pi (MicroBeta microplate scintillation counter, Wallac) was determined. […]
The residual activity (in %) for each well of a particular plate was calculated using the following formula (wherein high control is the kinase activity in absence of an inhibitor and low control is the radioactivity value of the substrate in absence of a kinase).
To study selectivity, residual activity was measured at 1 μM from a 320-kinase panel.

T1 sequence (Q9HBH9 whole entry): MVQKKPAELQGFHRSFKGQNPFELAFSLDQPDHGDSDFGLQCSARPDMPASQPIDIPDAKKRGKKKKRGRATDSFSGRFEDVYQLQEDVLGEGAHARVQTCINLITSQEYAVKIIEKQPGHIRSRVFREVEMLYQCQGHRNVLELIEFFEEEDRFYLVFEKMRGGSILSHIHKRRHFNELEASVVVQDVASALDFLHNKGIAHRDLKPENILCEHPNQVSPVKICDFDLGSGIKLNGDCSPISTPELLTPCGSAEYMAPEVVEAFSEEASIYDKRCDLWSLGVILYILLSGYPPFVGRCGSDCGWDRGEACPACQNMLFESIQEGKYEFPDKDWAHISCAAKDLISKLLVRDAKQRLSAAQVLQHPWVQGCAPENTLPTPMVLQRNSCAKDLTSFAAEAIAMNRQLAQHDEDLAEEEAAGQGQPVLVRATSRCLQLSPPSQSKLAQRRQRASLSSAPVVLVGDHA
Procedure for MNK2: The assays were carried out in 96-well FlashPlates™ by PerkinElmer (Boston, Mass., USA) with a reaction volume of 50 μl. The reaction cocktail was pipetted in 4 steps: (1) 20 μl buffer, (2) 5 μl ATP solution (in H2O), (3) 5 μl compound (in 10% DMSO) and (4) 20 μl enzyme/substrate mixture. […]
To screen compounds, the residual activity of both kinases was analysed after treatment with 10 μM of the compounds.

Turning to `Nc1n[nH]c2nc(-c3ccccc3)cc(-c3ccccc3)c12` [EB1, 4,6-diphenyl-1H-pyrazolo[3,4-b]pyridin-3-amine], the remaining activity at 10 µM at MNK2 amounted to 52%. Further, the “number of other kinases affected in an equivalent manner” value in the assay with 320-kinase panel is on record as 16.

Values taken from patent US20220257571A1, “INHIBITOR OF MAP KINASE INTERACTING SERINE/THREONINE KINASE 1 (MNK1) AND MAP KINASE INTERACTING SERINE/THREONINE KINASE 2 (MNK2), CANCER THERAPY AND THERAPEUTIC COMBINATIONS” (FUNPACIÓ HOSPITAL UNIVERSITARI VALL D'HEBRON - INSTITUT DE …, priority 2019, published 2022).
